One block for each compound: values may come before it.
What was measured:
human RBC = assay: Anti-inflammatory activity: hypotonic solution-induced human RBC hemolysis (560 nm); format: cell-based; settings: for IC50: induced human RBC hemolysis, read-out: Inflammatory IC50±SD
Protocol: All synthesized compounds are validated in human RBC (blood sample); the blood sample was collected from a healthy volunteer in an EDTA tube. The EDTA tube further proceeded with centrifugation at 3000 rpm for 30 min. A supernatant (which contains plasma and leucocytes) solution was isolated, and the obtained RBC (red blood cells) was further treated with Alsever’s reagent. Alsever’s reagent was prepared as follows: sodium citrate (0.8 g, 2.6 mmol), dextrose (2 g, 11.0 mmol), citric acid (0.050 g, […]), and sodium chloride (0.42 g, 7.0 mmol) were solubilized in 100 mL of distilled water. The above mixture was centrifuged for 30 min at 3000 rpm. Then, colloidal blood cells were separated, carefully transferred, and washed with 0.85% of the isosaline solution; this process continued until a clear solution appeared. Employing coagulated RBC and generated human erythrocyte hemolysis, the anti-inflammatory activity and potential of the synthesized entities were evaluated. The tested compounds are prepared at different concentrations for the inhibition activity of inflammation, along with 100 µL of a purified RBC sample utilized. All characterized samples were followed by adding 5.0 mL of trisodium phosphate (10 mM) and 5.0 mL of sodium chloride (5.0 mM) buffer solutions. After the addition of the above mixtures, the test samples are incubated for 15 min at room temperature with RBC and hypotonic mixtures. After incubation, the mixture was centrifuged at 3000 rpm for 15 min. The final supernatant liquid solution was measured at 560 nm using a UV-visible spectrophotometer.3 [drawing 3]

[1] = DPPH radical scavenging (517 nm); settings: for IC50: read-out: DPPH IC50±SD
Protocol: (§1) The experimental method principle relies on the degradation of the purple color of the DPPH radical and the blue color reduction of the ABTS cation radical. This is due to consuming the electron or hydrogen radical from the antioxidant (A-H). Both assays were measured at 517 nm and 734 nm, respectively. The distinction of color changes illustrates the potential scavenging activity of the inhibitor molecules in terms of hydrogen-donating proficiency. From this, we can conclude the anti-oxidant efficacy.
Methanolic DPPH solution (0.15 mM) was prepared, and 1.0 mL of DPPH solution was mixed with 3.0 mL of synthesized molecules at different concentrations (20 µM to 100 µM). The mixture was constantly swirled and stored RT for 30 min, followed by absorbance measurement at 517 nm.

[2] = ABTS cation radical scavenging (734 nm); settings: for IC50: read-out: ABTS IC50±SD
Protocol: as §1
In brief, 7.0 mM ABTS in H2O and 2.5 mM potassium persulfate (1:1) were shaken well to generate ABTS cation radicals and kept in the dark at RT for 15–20 h before it is used for the experiment. After, the radical was mixed with the synthesized molecules at different concentrations (20 µM to 100 µM). The resultant solution was measured for absorbance at 734 nm. Ascorbic acid is the positive control for this experiment.1 [drawing 1]

α-amylase (EC.3.2.1.1) = target: T1, α-amylase (EC.3.2.1.1) (Homo sapiens, UniProt P04746); assay: In vitro α-amylase inhibition (starch/DNS, 540 nm); format: biochemical
T1 sequence (P04746 16-511): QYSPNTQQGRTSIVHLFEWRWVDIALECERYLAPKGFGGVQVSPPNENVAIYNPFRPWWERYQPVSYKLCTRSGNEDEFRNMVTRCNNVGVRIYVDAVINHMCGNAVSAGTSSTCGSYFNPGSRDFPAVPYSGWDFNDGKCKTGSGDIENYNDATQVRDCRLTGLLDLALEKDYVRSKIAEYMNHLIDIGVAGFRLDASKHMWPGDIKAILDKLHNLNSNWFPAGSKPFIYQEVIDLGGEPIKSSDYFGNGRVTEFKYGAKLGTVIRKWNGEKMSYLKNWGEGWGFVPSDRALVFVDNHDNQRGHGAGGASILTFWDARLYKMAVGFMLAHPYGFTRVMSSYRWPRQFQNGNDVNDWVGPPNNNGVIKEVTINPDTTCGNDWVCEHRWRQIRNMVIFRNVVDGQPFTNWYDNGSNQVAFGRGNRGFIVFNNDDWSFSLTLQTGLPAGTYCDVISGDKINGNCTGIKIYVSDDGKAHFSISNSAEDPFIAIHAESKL
Protocol: α-Amylase enzyme and other chemical reagents are used for enzyme inhibitory activity. The characterized compounds are diluted in an analytical grad solvent (DMSO) system at 1 mg/mL solution concentration. The activity reaction of the synthesized analogues on the enzyme was treated at final concentrations of 2 to 10 µg. In the interaction between enzyme and compounds, 10 min incubation was maintained before the inhibitory activity started. The enzyme-receptor inhibition efficiency was calculated and compared with the positive control.
Sodium phosphate buffer 0.2 mM (pH 6.9 with 6 × 10^− 4 M NaCl) in 500 µL enzyme solution (0.5 mg/mL) was taken and incubated with test samples (2–10 µg/mL) at room temperature for 10 min. A starch (1%) solution of 500 µL with phosphate buffer was added to all test inhibitor samples; further, the tubes were incubated for 10 min at 28 °C. The reaction test tubes were incubated for another 5 min in the water bath (100 °C) after the addition of the color reagent dinitro salicylic acid and cooled at room temperature until reached. Finally, 10 mL of distilled water was mixed with each test tube, and the colored mixture was measured at a fixed wavelength of 540 nm. The absorbance without sample solution (blank) and control (buffer and standard drug sample) was measured at 540 nm. The α-amylase inhibition efficiency was validated using the following equation:2 [drawing 2]

MTT cell viability assay = format: cell-based; settings: mouse, RAW 264.7 macrophage cells, control 100
Protocol: (§2) The toxicity of the molecule was investigated by the MTT cell viability assay employing RAW macrophage cells. For this study, two lead compounds, 2b and 2e, were screened based on the in vitro results. […] (The OD values in Tables S6 and S7)
(§3) The MTT ((3-(4,5-Dimethylthiazol-2-yl)-2,5-Diphenyltetrazolium Bromide)) assay was employed to determine viability for the synthesized potent compounds 2b and 2e; the cell viability results portray the compounds’ cytotoxicity. The assay was conducted on RAW macrophage cells (RAW 264.7) with various dilutions of 2b and 2e (10, 20, 30, 40, and 50 µM). The results were confirmed with a control.

[3] = test system: RAW macrophage cells (RAW 264.7); assay: MTT cell viability assay; format: cell-based; settings: for MTT assay Average OD: control average OD 0.924
Protocol: as §2, §3

- IC50 [1]: 15.63 ± 0.13 µM
- IC50 [2]: 19.9 ± 0.25 µM
- α-Amylase Inhibition % (α-amylase (EC.3.2.1.1); 2 µg): 80.52%
- α-Amylase Inhibition % (α-amylase (EC.3.2.1.1); 4 µg): 80.38%
- α-Amylase Inhibition % (α-amylase (EC.3.2.1.1); 6 µg): 77.01%
- α-Amylase Inhibition % (α-amylase (EC.3.2.1.1); 8 µg): 69.1%
- α-Amylase Inhibition % (α-amylase (EC.3.2.1.1); 10 µg): 54.9%
- IC50 (α-amylase (EC.3.2.1.1); test concentrations 2-10 µg, read-out: α-Amylase IC50±SD (converted)): 4.37 µM
SMILES: COC(=O)/C=C/c1ccc(OC(=O)c2cccnc2)c(OC)c1 [Compound 2b, 2-Methoxy-4-(3-methoxy-3-oxoprop-1-en-1-yl) phenyl nicotinate]
- inhibition at 20 µM (human RBC): 60%
- inhibition at 40 µM (human RBC): 69.9%
- inhibition at 60 µM (human RBC): 71%
- inhibition at 80 µM (human RBC): 76%
- inhibition at 100 µM (human RBC): 85.8%
- IC50 (human RBC): 18.41 ± 0.13 µM
- DPPH Inhibition % ([1]; 20 µM): 66.2%
- DPPH Inhibition % ([1]; 40 µM): 86.32%
- DPPH Inhibition % ([1]; 60 µM): 87.6%
- DPPH Inhibition % ([1]; 80 µM): 88%
- DPPH Inhibition % ([1]; 100 µM): 88.4%
- ABTS Inhibition % ([2]; 20 µM): 59.6%
- ABTS Inhibition % ([2]; 40 µM): 60.8%
- ABTS Inhibition % ([2]; 60 µM): 60.9%
- ABTS Inhibition % ([2]; 80 µM): 61%
- ABTS Inhibition % ([2]; 100 µM): 61.4%
- viability at 10 µM (MTT cell viability assay; 10 µM): 85.4%
- viability at 20 µM (MTT cell viability assay; 20 µM): 77.4%
- viability at 30 µM (MTT cell viability assay; 30 µM): 68.5%
- viability at 40 µM (MTT cell viability assay; 40 µM): 58.8%
- viability at 50 µM (MTT cell viability assay; 50 µM): 45.3%
- MTT assay Triplicate values OD1 ([3]; 10 µM): 0.790
- MTT assay Triplicate values OD2 ([3]; 10 µM): 0.792
- MTT assay Triplicate values OD3 ([3]; 10 µM): 0.785
- MTT assay Average OD ([3]; 10 µM): 0.789
- MTT assay Triplicate values OD1 ([3]; 20 µM): 0.719
- MTT assay Triplicate values OD2 ([3]; 20 µM): 0.712
- MTT assay Triplicate values OD3 ([3]; 20 µM): 0.711
- MTT assay Average OD ([3]; 20 µM): 0.714
- MTT assay Triplicate values OD1 ([3]; 30 µM): 0.634
- MTT assay Triplicate values OD2 ([3]; 30 µM): 0.629
- MTT assay Triplicate values OD3 ([3]; 30 µM): 0.636
- MTT assay Average OD ([3]; 30 µM): 0.633
- MTT assay Triplicate values OD1 ([3]; 40 µM): 0.542
- MTT assay Triplicate values OD2 ([3]; 40 µM): 0.541
- MTT assay Triplicate values OD3 ([3]; 40 µM): 0.546
- MTT assay Average OD ([3]; 40 µM): 0.543
- MTT assay Triplicate values OD1 ([3]; 50 µM): 0.418
- MTT assay Triplicate values OD2 ([3]; 50 µM): 0.416
- MTT assay Triplicate values OD3 ([3]; 50 µM): 0.423
- MTT assay Average OD ([3]; 50 µM): 0.419
- Toxicity, outcome of the MTT cell viability assay (in words) ([3]; RAW macrophage cells): viable for the cell line

- IC50 [1]: 93.69 ± 0.26 µM
- IC50 [2]: 20.57 ± 0.13 µM
SMILES: COC(=O)/C=C/c1ccc(OC)c(OC(=O)c2cccnc2)c1 [Compound 2c, 2-Methoxy-5-(3-methoxy-3-oxoprop-1-en-1-yl) phenyl nicotinate]
- inhibition at 20 µM (human RBC): 48%
- inhibition at 40 µM (human RBC): 52.9%
- inhibition at 60 µM (human RBC): 62.5%
- inhibition at 80 µM (human RBC): 77%
- inhibition at 100 µM (human RBC): 86%
- IC50 (human RBC): 27.65 ± 0.2 µM
- DPPH Inhibition % ([1]; 20 µM): 32%
- DPPH Inhibition % ([1]; 40 µM): 34.9%
- DPPH Inhibition % ([1]; 60 µM): 36.1%
- DPPH Inhibition % ([1]; 80 µM): 48%
- DPPH Inhibition % ([1]; 100 µM): 51.9%
- ABTS Inhibition % ([2]; 20 µM): 58%
- ABTS Inhibition % ([2]; 40 µM): 59.7%
- ABTS Inhibition % ([2]; 60 µM): 59.8%
- ABTS Inhibition % ([2]; 80 µM): 60%
- ABTS Inhibition % ([2]; 100 µM): 60%
- MTT assay Triplicate values OD1 ([3]; 10 µM): 0.824
- MTT assay Triplicate values OD2 ([3]; 10 µM): 0.826
- MTT assay Triplicate values OD3 ([3]; 10 µM): 0.819
- MTT assay Average OD ([3]; 10 µM): 0.823
- MTT assay Triplicate values OD1 ([3]; 20 µM): 0.754
- MTT assay Triplicate values OD2 ([3]; 20 µM): 0.753
- MTT assay Triplicate values OD3 ([3]; 20 µM): 0.758
- MTT assay Average OD ([3]; 20 µM): 0.755
- MTT assay Triplicate values OD1 ([3]; 30 µM): 0.689
- MTT assay Triplicate values OD2 ([3]; 30 µM): 0.695
- MTT assay Triplicate values OD3 ([3]; 30 µM): 0.692
- MTT assay Average OD ([3]; 30 µM): 0.692
- MTT assay Triplicate values OD1 ([3]; 40 µM): 0.596
- MTT assay Triplicate values OD2 ([3]; 40 µM): 0.604
- MTT assay Triplicate values OD3 ([3]; 40 µM): 0.606
- MTT assay Average OD ([3]; 40 µM): 0.602
- MTT assay Triplicate values OD1 ([3]; 50 µM): 0.520
- MTT assay Triplicate values OD2 ([3]; 50 µM): 0.525
- MTT assay Triplicate values OD3 ([3]; 50 µM): 0.518
- MTT assay Average OD ([3]; 50 µM): 0.521
